The source of these data is patent US5691311A (Biogen, Inc., priority 1995, dated 1997).

Bounds are passed on as bounds.

The subject of data set [1] is pooled, normal human plasma. Briefly: Activated partial thromboplastin time (APTT) assay in plasma. Format: biochemical. The following applies: 10 to 32,300 ng/ml. The source says:
Hirulog-8 using pooled, normal human plasma (George King Biomedical, Overland Park, Kans.) and a Coag-A-Mate XC instrument (General Diagnostics, Organon Technica, Oklahoma City, Okla.). Activity was monitored using the activated partial thromboplastin time (APTT) assay with CaCl2 and phospholipid solutions obtained from the manufacturer.

Data set [2] has as its system APTT. Briefly: Systemic anticoagulant effect (APTT) of antithrombotic agents. The following applies: dose not given. In kind it is in vivo, baboon. The source says:
We also tested the effects of a variety of other agents on template bleeding time in the baboon, as well as on systemic anticoagulant effects (as measured by APTT).

In data set [3] the test system is APTT. Briefly: In vivo anticoagulant activity, APTT after intravenous infusion. On the set-up: species or system baboon. As for the experimental part: Whole blood from treated and control animals was removed from a catheter placed in the femoral vein and collected into 3.8% sodium citrate (9:1; blood:sodium citrate). Plasma was obtained by standard methods and the APTT was recorded by methods described in Example 10.

A further data set deals with hemostasis. The data set can be described thus: Template bleeding time. Format: in vivo, baboon.
For data set [4], the system named is human umbilical vein endothelial cells (HUVECs). The data set can be described thus: Thrombin-induced synthesis of platelet activating factor (PAF). Format: cell-based. The following applies: 0-1 μg/ml, thrombin 1 U/ml. The protocol:
The ability of the thrombin inhibitors of this invention to prevent thrombin-induced synthesis of platelet activating factor (PAF) is assayed using cultured human umbilical vein endothelial cells (HUVECs). HUVECS are extracted from human umbilical cords by collagenase digestion according to established procedures [M. A. Gimborne, Jr., "Culture of Vascular Endothelium", Prog. Hemost. Thromb., 3, pp. 1-28 (1976)]. HUVECs are grown to confluence in a 96-well microtiter plate in the presence of [^3 H]-acetate. Cells cultured in this manner produce [^3 H]-acetyl-PAF, which may be quantitated by extraction of HUVEC membrane phospholipids.
Cells are incubated for 5 minutes and the supernatant is then removed. Medium containing 0.1% gelatin, 50 mM acetic acid in methanol (2:1 v/v) is then added to the HUVECs. PAF is then extracted and quantified using conventional techniques [T. M. Mcintyre et al., "Cultured Endothelial Cells Synthesize Both Platelet-Activating Factor and Prostacyclin in Response to Histamine, Bradykinin and Adenosine Triphosphate", J. Clin. Invest., 76, pp. 271-80 (1985)]. The IC50 values are then calculated.

In data set [5] the test system is thrombin-induced platelet activation. Briefly: Thrombin-induced platelet activation in platelet-rich plasma. Format: cell-based, human. The following applies: 0-500 ng/ml, thrombin 0.2, 0.25 or 0.5 units/ml. The protocol:
Thrombin-induced platelet activation studies are performed at 37° C. using a Biodata PAP4 Platelet Aggregometer. Platelet-rich plasma (PRP) is obtained from normal, healthy, volunteers who have not taken any medication altering platelet function for at least one week prior to study. PRP is prepared as described by J. A. Jakubowski et al., "Modification of Human Platelet by a Diet Enriched in Saturated or Polyunsaturated Fat", Atherosclerosis, 31, pp. 335-44 (1978). […] One minute later, we add human α-thrombin to the platelet suspension to a final concentration of 0.2, 0.25 or 0.5 units/ml total assay volume. Aggregation is monitored as an increase in light transmission for 5 minutes following the addition of thrombin. We then calculate % Inhibition as (% aggregationsample)/(% aggregationcontrol)×100.

In data set [6] the test system is platelet-dependent thrombus formation. Briefly: High and low shear platelet-dependent thrombus formation, dual-chamber device. Format: in vivo, baboon. The note with it: 0.05 mg/kg/min, 40 minutes. The source says:
The device was comprised of a 2 cm segment of collagen-coated Gortex followed by 2 cm segments of expanded diameter. Using this device, thrombus formation was initiated by exposure of native flowing blood to a segment of the collagen-coated Gortex at high shear. This part of the experimental protocol simulated arterial-like conditions. When the blood entered the expanded diameter segments, low-shear, vortex conditions were maintained, thereby simulating venous thrombosis. In control animals, a total of 9.3±2.3×10^8 and 6.1±0.5×10^8 platelets/cm accumulated after 40 minutes in the high and low shear segments, respectively.

The nature of data set [7]: Clearance times monitored by APTT. Format: in vivo, baboon. The protocol: APTT assays, performed as described in Example 11, were used to monitor clearance times.
APTT was measured following the 60 minute infusion and at various time intervals thereafter.
APTT measurements were taken at various time intervals following injection.

For a further data set, the system named is sarcoma T241 cells. The data set can be described thus: Anti-metastatic activity, lung tumor colonies. Format: in vivo, C57BL/6 mice. The note with it: i.v. or s.c., 15 days. The source says:
After 15 days, the animal is sacrificed and lung tumor colonies are quantitated.

Data set [8] relates to platelet-dependent thrombosis. Briefly: Platelet deposition on thrombogenic surfaces in exteriorized AV shunt. Format: in vivo, baboon. The protocol: Specifically, we placed various thrombogenic surfaces in a chronic exteriorized AV shunt in the animals. These surfaces included segments of endarterectomized baboon aorta, collagen-coated silastic tubing, collagen-coated Gortex and Dacron vascular graft. Following placement in the shunt, the surfaces were exposed to native flowing blood to elicit thrombus formation. We measured the formation of thrombi over a period of 60 minutes by monitoring the deposition of platelets on the thrombogenic surface. These measurements were recorded by external gamma-camera imaging following pre-infusion of the test animal with autologous ^111 In-labeled platelets.

The test system of another data set is HUVECs. The data set can be described thus: Thrombin-induced polymorphonuclear leukocyte (PMN) adhesion to HUVECs. In kind it is cell-based, human. The note with it: 5 μg/ml, α-thrombin 0.1 or 1 U/ml. As for the experimental part: HUVECs are grown to confluence in MEM containing 1% fetal calf serum in 24-well cluster plates. The medium is then removed, the cells are washed two times with fresh, serum-free medium and incubated in the same medium for 10-30 minutes at 37° C. to remove serum products. PMNs (2.5×10^6 in 1 ml), which are pre-equilibrated at 37° C., are then added to each well. The PMNs are allowed to settle onto the HUVEC monolayer for 2 minutes. […] The cells are incubated for 5 minutes at 37° C., washed twice and then examined by phase-contrast microscopy. Adherent PMNs are counted directly.

Data set [9] relates to E. coli-induced septic shock. Briefly: E. coli-induced septicemia / disseminated intravascular coagulation. Format: in vivo, baboon. The following applies: 0.08 mg/kg/hr infusion. The source says:
We induced septicemia in baboons by injection of a lethal dose of live E. coli according to the method described by F. B. Taylor et al. J. Clin. Invest., 79, pp. 918-25 (1987).

A further data set deals with fibrin(ogen) deposition. The data set can be described thus: Fibrin(ogen) deposition in AV shunt thrombi. Format: in vivo, baboon. The following applies: collagen-coated tubing, 60 minute exposure. As for the experimental part: Fibrin deposition was determined by measurement of ^125 I-fibrin(ogen) 30 days after completion of the ^111 In-platelet assay described above. This allowed the ^111 In label to decay to a non-interfering level.

The subject of data set [10] is platelet-dependent thrombosis. The note with it: collagen-coated silastic tubing, 160 U/kg bolus then 160 U/kg/hr infusion; cited from earlier work.
The target of another data set is T1, soluble thrombin (Homo sapiens, UniProt P00734).
T1 construct: We added a 270-fold excess of ^14 C-DFP to thrombin
Briefly: Fibrinopeptide A (FPA) release by soluble thrombin. Format: biochemical. The following applies: 0.1 U/ml.

For a further data set, the target named is clot-bound thrombin (Homo sapiens, UniProt P00734). Briefly: Fibrinopeptide A (FPA) release by clot-bound thrombin. Format: biochemical. The note with it: similar dose (0.1 U/ml).

On to `CC[C@H](C)[C@H](NC(=O)[C@H](CCC(=O)O)NC(=O)[C@H](CCC(=O)O)NC(=O)[C@H](Cc1ccccc1)NC(=O)[C@H](CC(=O)O)NC(=O)CNC(=O)[C@H](CC(N)=O)NC(=O)CNC(=O)CNC(=O)CNC(=O)CNC(=O)[C@@H]1CCCN1C(=O)[C@H](CCCNC(=N)N)NC(=O)[C@@H]1CCCN1C(=O)[C@H](N)Cc1ccccc1)C(=O)N1CCC[C@H]1C(=O)N[C@@H](CCC(=O)O)C(=O)N[C@@H](CCC(=O)O)C(=O)N[C@@H](Cc1ccc(O)cc1)C(=O)N[C@@H](CC(C)C)C(=O)O` [Hirulog-8], for which the “maximal increase of APTT of plasma” value in [1] was “too high to be measured”. Besides, in the data set with APTT [2], the “APTT (% control)” value is on record as 300.6 % control. Also, the “increase in the APTT” value with APTT [3] (0.002 mg/kg/min infusion) amounted to 200 % increase. Moreover, in the data set with APTT [3] (0.002 to 0.2 mg/kg/min i.v.), the “APTT response to dose” value is on record as “dose-dependent increase in the APTT”. The “increase in bleeding time over control values” in the data set on hemostasis (0.1 mg/kg/min) was “two-fold”. Also, the bleeding times was 3 times control values in the data set with hemostasis (0.2 mg/kg/min) and “no significant increase in bleeding times” with hemostasis (0.002 to 0.04 mg/kg/min). The “Bleeding Time” value in the data set with hemostasis (dose not given) is recorded as 5.5 min. Further, the “synthesis of PAF by HUVECs” value in data set [4] is “inhibits the synthesis of PAF”. In addition, the thrombin-induced platelet activation result in [5] is on record as “blocks thrombin-induced platelet activation”. Besides, the figures for the “inhibition of platelet accumulation” value in data set [6] (high shear) and in data set [6] (low shear) were 29.0% and 42.6%, respectively. This compound displayed a half-life in data set [7] (1 mg/kg i.v. bolus) of 14 min. In addition, the “peak APTT” value in [7] (1 mg/kg i.v. bolus, 2 minutes after injection) was 570 % of control. For the same compound, the “absorption after subcutaneous administration” value in data set [7] (1 mg/kg subcutaneous) is given as “quantitatively adsorbed”. Further, the clearance half-time in [7] (1 mg/kg subcutaneous) is 340 min. Further, the APTT entry in [7] (1 mg/kg subcutaneous, 15 minutes) is on record as “approximately 200 % of control”. In addition, the “average half-time for clearance” value in data set [7] (after 60 minute i.v. infusion, 0.002-0.2 mg/kg/min) came to 9.2 ± 3.3 min. Besides, in the data set on sarcoma T241 cells, the “anti-metastatic activity (reduction in lung tumor colonies)” value is reported as “demonstrates anti-metastatic activity”. Further, the ED50 was 0.135 mg/kg/min in [8] (collagen-coated Gortex); 0.004 mg/kg/min in data set [8] (collagen-coated silastic tubing); under 5 nmol/kg/min in data set [8] (collagen-coated surfaces, applicants' determinations). Besides, the “inhibition of platelet deposition” value in data set [8] (collagen-coated Gortex, 0.2 mg/kg/min) is 62.9%; in data set [8] (collagen-coated silastic tubing, 0.04 mg/kg/min) it was “completely inhibited platelet deposition”; in data set [8] (endarterectomized baboon aorta, 0.002 mg/kg/min, 60 minutes) it was 53.6%; in [8] (endarterectomized baboon aorta, 0.01 mg/kg/min, 60 minutes), 75.5%. For the same compound, the “inhibition of platelet-dependent thrombus formation compared to control” value in data set [8] (collagen-coated silastic tubing, 5 nmole/kg/min) is recorded as 60-70%. In data set [8] (endarterectomized baboon aorta), the “ED50 (dosage required to reduce platelet deposition by 50%)” value is on record as 0.002 mg/kg/min. For the same compound, the “adherent PMNs versus saline” value in the data set on HUVECs is listed as “significantly fewer adherent PMNs”. In addition, the hematocrit drop result in [9] is recorded as “completely attenuated hematocrit drop”. Also, in data set [9], the “intravascular thrombosis at autopsy” value was “only the control group displayed intravascular thrombosis”. The “morbidity after lethal infusion of E. coli” value in data set [9] is “still resulted in morbidity”. The “peak drop in blood pressure” value in [9] was 60 % of baseline. Moreover, the “fibrin(ogen) deposition” value with fibrin(ogen) deposition (0.01 mg/kg/min) and in the data set on fibrin(ogen) deposition (0.04 mg/kg/min) was “completely inhibited fibrin(ogen) deposition” each time.
Take Heparin: in [10], the “platelet deposition level relative to saline-treated control” value is given as “about 80%”. The “APTT (% control)” value in the data set on APTT [2] worked out at 706.1 % control. The “inhibition of FPA release catalyzed by soluble thrombin” value against soluble thrombin is recorded as “approximately 70%”. The “Bleeding Time” value in the data set on hemostasis (in vivo) is recorded as 10 min. Also, the “effect on FPA release catalyzed by clot-bound thrombin” value at clot-bound thrombin is “no effect”.
